Patent US8614227B2, “Salt and solvates of a tetrahydroisoquinoline derivative” (Spinifex Pharmaceuticals Pty Ltd, priority 2010, dated 2013)

Columns and labels:
[1] = HPMC vs gelatin capsules of amorphous Compound 2: potency, purity, water uptake after 1 week; format: physicochemical
Method: Twenty capsules of both hydroxypropyl methylcellulose (HPMC, also known as Hypromellose) and gelatin were filled with 25±1 mg of amorphous Compound 2 to determine if the lower water content found in HPMC capsules would retard the water uptake of the compound. Samples of Compound 2 in both capsule types were placed at 25° C./60% RH and 40° C./75% RH for 1 week. The samples were analyzed for water content, potency, and % purity (% area) at t=0 and t=1 week.
20 transparent size 00 HPMC capsules and 20 transparent size 00 gelatin capsules were hand filled with API.
Each capsules was filled with 25±1 mg of API.
The two capsule types were both separated into two 30 cc HDPE bottles with caps and placed at both 25° C./60% RH and 40° C./75% RH for 1 week.
For the t=0 time point, Compound 2 was analyzed for water content, potency, and % purity (% area).
Two samples of Compound 2 were taken at t=0 for water content. The first sample was taken after the HPMC capsules had been filled and the second sample was taken after the gelatin capsules had been filled. This sampling procedure was done to offset the water uptake that took place while the capsules were being filled.
76.17 mg of Compound 2 was weighed directly into a 100-mL volumetric flask.
The flask was diluted to volume with ACN and inverted to mix.
A 1 mL aliquot was transferred directly into an HPLC vial for analysis.

[2] = Dissolution comparison of solid sodium salt forms in capsules; format: physicochemical
Method: Dissolution of three forms of solid sodium salt were analyzed, a monosodium trihydrate (Compound 6), a monosodium salt dihydrate (Compound 7) and amorphous Compound 2.
The crystalline material was made by exposing amorphous Compound 2 to ambient temperature/75% RH for 24 hrs. These conditions were created using a saturated sodium chloride solution sealed in a desiccant chamber. Once the crystalline material had been created it was collected and stored at 2-8° C. until dissolution testing took place. Two samples for dissolution were prepared by weighing 25 mg±1 mg into size 00 white opaque gelatin capsules.
Crystalline Compound 7 dihydrate was made by placing a sample of the iso-propanol solvate of Compound 2 at ambient temperature and humidity conditions for 2 weeks. The iso-propanol solvate of Compound 2 readily converts to the dihydrate. Once Compound 7 had been prepared, it was collected and stored at 2-8° C. until dissolution testing was conducted. Two samples for dissolution were prepared by weighing 25 mg±1 mg into size 00 white opaque gelatin capsules.
Two samples for dissolution were prepared by weighing 25 mg±1 mg of amorphous Compound 2 into size 00 white opaque gelatin capsules.
The dissolution materials and parameters are set out in Table 33. At each pull time ˜6 mL of media was removed from each vessel and filtered through a 0.45 μm nylon filter. The first 5 mL of solution was discarded and the final 1 mL was collected in a UPLC vial for analysis.

[3] = Gelatin Capsules, 25° C., t = 1 week
[4] = Gelatin Capsules, 40° C., t = 1 week
[5] = HPMC Capsules, 25° C., t = 1 week
[6] = HPMC Capsules, 40° C., t = 1 week

Question: Which results are given for `COc1ccc2c(c1OCc1ccccc1)C[C@@H](C(=O)[O-])N(C(=O)C(c1ccccc1)c1ccccc1)C2.[Na+]` [Compound 2, sodium salt of (S)-2-(diphenylacetyl)-1,2,3,4-tetrahydro-6-methoxy-5-(phenylmethoxy)-3-isoquinoline carboxylic acid]?
Answer: % Potency [1, 3]: 90.1%; % a/a Purity [1, 3]: 98.95 % a/a; Δ% a/a Purity [1, 3]: 0.00 % a/a; % Potency [1, 4]: 90.8%; % a/a Purity [1, 4]: 98.88 % a/a; Δ% a/a Purity [1, 4]: −0.07 % a/a; % Potency [1, 5]: 90.2%; % a/a Purity [1, 5]: 98.95 % a/a; Δ% a/a Purity [1, 5]: 0.00 % a/a; % Potency [1, 6]: 89.8%; % a/a Purity [1, 6]: 98.74 % a/a; Δ% a/a Purity [1, 6]: −0.21 % a/a; % Potency ([1]; Sample t = 0): 86.3%; % a/a Purity ([1]; Sample t = 0): 98.95 % a/a; potency and % purity (% area) after 1 week ([1]; all conditions tested (HPMC and gelatin capsules, 25° C./60% RH and 40° C./75% RH)): unchanged; slowing of the uptake of water by HPMC capsules relative to gelatin ([1]; stored at 40° C./75% RH, 1 week): 3.74%; % Dissolution ([2]; 15 mins, 25 mg in gelatin capsule, pH 6.8 phosphate buffer 900 mL, 37° C., 50 RPM): 77.8%; % Dissolution ([2]; 30 mins, pH 6.8 phosphate buffer, 50 RPM): 83.6%; % Dissolution ([2]; 45 mins, pH 6.8 phosphate buffer, 50 RPM): 86.3%; % Dissolution ([2]; 60 mins, pH 6.8 phosphate buffer, 50 RPM): 88.8%; % Dissolution ([2]; 120 mins, pH 6.8 phosphate buffer, 150 RPM for 2nd hour): 92.9%; dissolution rate (comparison of forms) ([2]; pH 6.8 phosphate buffer, capsules): dissolved considerably faster
